From PubChem BioAssay (NCI) come the findings set out here.

Several values for one entry are separate records, joined by “and”; a condition that tells them apart may be missing. Equal entries are not always repeated.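 Five compound concentrations were applied to cells in 96-well plates for 48 hours; endpoints were derived by simple linear interpolation of the resulting dose-response curve. Here, GI50 denotes the concentration required for 50% inhibition of growth. The concentration for full growth arrest is given as TGI.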

Among the test systems are CCRF-CEM leukemia; COLO 205 colon; EKVX NSCLC; M14 melanoma; NCI-H23 lung; OVCAR-4 ovarian; RPMI-8226 leukemia; SF-268 CNS; SK-MEL-5 melanoma; SNB-19 CNS; UO-31 renal; HOP-62 NSCLC; SNB-75 CNS.
Test in all cases: NCI tumour cell line growth inhibition, 48 h

Take `CCOC(=O)c1cnc(-n2[nH]c3c(c2=O)CCCC3)[nH]c1=O`: the TGI in the test with CCRF-CEM leukemia, with COLO 205 colon, in the test with EKVX NSCLC, in the test with M14 melanoma, in the test with NCI-H23 lung and in the test on OVCAR-4 ovarian was above 100 µM throughout. The TGI in the test with RPMI-8226 leukemia, in the test on SF-268 CNS, with SK-MEL-5 melanoma, in the test with SNB-19 CNS and with UO-31 renal was above 100 µM in each case.

With `COc1ccc2c(c1)CCC1=CC3(CCC12C)SCCS3` (configuration not stated), the TGI in the test on CCRF-CEM leukemia, with COLO 205 colon, in the test on HOP-62 NSCLC, in the test with M14 melanoma, with NCI-H23 lung and in the test on OVCAR-4 ovarian was above 10 µM each time. Also, the TGI in the test on RPMI-8226 leukemia, in the test on SF-268 CNS, with SK-MEL-5 melanoma, with SNB-19 CNS and in the test with SNB-75 CNS was above 10 µM each time.

Turning to `Cc1c2c(n(CCN(C)C)c1C)NN=C(C#N)S2(=O)=O`, the TGI in the test with COLO 205 colon, with EKVX NSCLC, in the test on HOP-62 NSCLC, with M14 melanoma, in the test with NCI-H23 lung and with OVCAR-4 ovarian was above 100 µM each time. Also, the TGI in the test on RPMI-8226 leukemia, in the test on SF-268 CNS, with SNB-19 CNS, in the test with SNB-75 CNS and in the test on UO-31 renal was above 100 µM throughout.

Turning to `Cn1c2c(c3ccccc31)CC(=S)N1CCCC(CC2O)C1` (configuration not stated), the TGI with COLO 205 colon, in the test on NCI-H23 lung, in the test with OVCAR-4 ovarian, with RPMI-8226 leukemia, in the test with SF-268 CNS and in the test on SK-MEL-5 melanoma was above 100 µM in each case. Also, the TGI in the test with SNB-19 CNS, with SNB-75 CNS and with UO-31 renal was above 100 µM each time.

Regarding `O=C(c1cccc(C(=O)c2ccc3c4c(cccc24)C(=O)N(c2ccccc2)C3=O)c1)c1ccc2c3c(cccc13)C(=O)N(c1ccccc1)C2=O`, the TGI with COLO 205 colon, in the test with EKVX NSCLC, with HOP-62 NSCLC, in the test on M14 melanoma, in the test with NCI-H23 lung and in the test with OVCAR-4 ovarian was above 100 µM in each case. Moreover, the TGI with RPMI-8226 leukemia, in the test with SF-268 CNS, in the test on SK-MEL-5 melanoma, with SNB-19 CNS, with SNB-75 CNS and in the test with UO-31 renal was above 100 µM throughout.

Take `C/C(=C\c1ccc(Cl)c(Cl)c1)[N+](=O)[O-]`: the GI50 was 1.78 µM in the test on COLO 205 colon; 1.57 µM in the test on M14 melanoma; 0.538 µM in the test with RPMI-8226 leukemia; 1.66 µM in the test with SF-268 CNS; 3.05 µM in the test with SK-MEL-5 melanoma; 1.46 µM in the test on SNB-75 CNS. The TGI in the test on COLO 205 colon was 3.27 µM; in the test on EKVX NSCLC it was 3.9 µM and 4.58 µM; with HOP-62 NSCLC, 3.15 µM; with M14 melanoma, 3.13 µM and 3.16 µM; with NCI-H23 lung it was 5.36 µM; with OVCAR-4 ovarian, 3.09 µM. The TGI was 3.17 µM in the test on RPMI-8226 leukemia; 3.31 µM and 3.33 µM in the test with SF-268 CNS; 11.3 µM and 3.94 µM in the test with SK-MEL-5 melanoma; 9.45 µM with SNB-19 CNS; 2.61 µM and 2.66 µM in the test with UO-31 renal.

With `O=C(O)c1oc(C(=O)O)c(C(=O)O)c1C(=O)O`, the TGI in the test on CCRF-CEM leukemia, in the test on EKVX NSCLC, in the test on HOP-62 NSCLC, with M14 melanoma, in the test with NCI-H23 lung and with OVCAR-4 ovarian was above 100 µM in each case. The TGI in the test on RPMI-8226 leukemia, in the test with SF-268 CNS, in the test on SK-MEL-5 melanoma, with SNB-19 CNS and in the test on UO-31 renal was above 100 µM each time.

With `O=C(Nc1ccccc1F)c1cc2ccc(O)cc2oc1=Nc1cccc(C(F)(F)F)c1`, the TGI with CCRF-CEM leukemia was determined as 4.79 µM; with COLO 205 colon it was 33 µM; in the test with EKVX NSCLC, 10.6 µM; in the test with HOP-62 NSCLC it was 53.7 µM; with M14 melanoma it was 26 µM; in the test with NCI-H23 lung, 4.44 µM. Besides, the TGI in the test with OVCAR-4 ovarian was 12.9 µM; with RPMI-8226 leukemia it was above 100 µM; in the test with SF-268 CNS, 13.2 µM; in the test on SK-MEL-5 melanoma, 4.91 µM; in the test with SNB-19 CNS it was above 100 µM; in the test with UO-31 renal, 15.5 µM.

Regarding `COc1cc(O)c2c(=O)cc(C3(O)C=CC(=O)C=C3)oc2c1`, the TGI in the test on COLO 205 colon was 0.906 µM; with EKVX NSCLC it was 5.79 µM; with HOP-62 NSCLC, 0.486 µM; in the test on M14 melanoma it was 2.37 µM; in the test on NCI-H23 lung, 2.46 µM; in the test with OVCAR-4 ovarian, 3.35 µM. In addition, the TGI in the test with SF-268 CNS was found to be 1.72 µM; in the test on SK-MEL-5 melanoma, 0.234 µM; with SNB-75 CNS it was 3.06 µM; with UO-31 renal it was 0.993 µM.

Turning to `N#CC(Cc1ccccc1Br)N(CCC1=CCCCC1)C(c1ccccc1)c1ccccc1` (configuration not stated), the TGI in the test on COLO 205 colon, in the test with EKVX NSCLC, in the test with HOP-62 NSCLC, in the test with M14 melanoma, in the test with NCI-H23 lung and in the test with OVCAR-4 ovarian was above 100 µM each time. Further, the TGI in the test on RPMI-8226 leukemia was 83.5 µM; in the test on SF-268 CNS, above 100 µM; with SK-MEL-5 melanoma, above 100 µM; in the test with SNB-19 CNS, above 100 µM; in the test on SNB-75 CNS it was above 100 µM; with UO-31 renal it was above 100 µM.

For the compound `CCCCCCCN1C(=O)C(O)(c2ccc(C3(O)C(=O)N(CCCCCCC)c4ccccc43)s2)c2ccccc21` (configuration not stated), the TGI came to 27 µM in the test with CCRF-CEM leukemia; 3.21 µM in the test with COLO 205 colon; 3.41 µM with HOP-62 NSCLC; 3.69 µM with M14 melanoma; 3.77 µM in the test with OVCAR-4 ovarian; 4.69 µM in the test on RPMI-8226 leukemia. The TGI with SF-268 CNS amounted to 3.97 µM; with SK-MEL-5 melanoma it was 3.26 µM; in the test on SNB-19 CNS it was 8.7 µM; in the test on SNB-75 CNS it was 17.3 µM; in the test with UO-31 renal, 3.14 µM.
